Experimental data as given in patent US6716883B1, “Composition useful to treat periodontal disease” (priority 1998, dated 2004).

Legend:
Assay type in all cases: cell-based
[1] = test system: chick periosteal osteogenesis (CPO) cultures; experiment: Histological evaluation of bone formation in chick periosteal osteogenesis (CPO) cultures
Experimental: In this experiment, the chick periosteal osteogenesis (CPO) model was used to determine if bone loss is induced by dioxin. The CPO model has been described in detail previously (Nijweide, Proc. Kon. Ned. Akad. Wet. 1975. C78:410-417) and was prepared for the purposes of this experiment as set out below.
Following sacrifice, two triangular calvarial explants were removed by cutting along the central suture, transversely along the posterior suture and laterally above the eye in 17-day-old embryonic chicks. The ectocranial periosteum (outer curved surface) was peeled off using forceps under microscopic magnification and folded so that the surface originally facing bone was in apposition to itself as described previously (Tenenbaum et al., Calcif Tissue Int. 34:76-79). The folded explant was then placed on a Millipore filter (HA 0.45 μm), which was transferred onto a stainless steel grid resting in the center well of an organ culture dish (Falcon Plastics, Lincoln Park, N.J., USA) that was filled with culture media to a level such that the culture was supported at the gas-liquid interface (˜1.5 ml of media). Three cultures were placed in each dish which was then covered and incubated at 37° C. in a humidified atmosphere containing 5% CO2 in air. Media changes occurred on days 2 and 4, and the medium was comprised of BGJb medium (Fitton-Jackson Modification) with L-glutamine (Gibco, Grand Island, N.Y., USA) and supplemented with 2% antibiotic (10,000 units/ml Penicillin G sodium, 10,000 μg/ml Streptomycin sulfate in 0.85% saline) (Gibco), 10% fetal calf serum (Gibco), 10^−7M dexamethasone (Sigma, St. Louis, Mo., USA), 10 mM β-glycerophosphate, and 300 μg/ml L-ascorbate (Gibco).
For the purposes of this investigation, the effects of a potent aryl hydrocarbon, TCDD (2,3,7,8-tetrachlorodibenzo-p-dioxin or dioxin) on the early events occurring during osteogenesis were determined. The CPO model traverses a number of phases of osteogenesis. […]

[2] = test system: chick periosteal osteogenesis (CPO) cultures; experiment: RT-PCR mRNA levels of bone proteins (AP, BSP, collagen type I, OPN) in CPO cultures
Experimental: For the purposes of this investigation, the effects of a potent aryl hydrocarbon, TCDD (2,3,7,8-tetrachlorodibenzo-p-dioxin or dioxin) on the early events occurring during osteogenesis were determined. The CPO model traverses a number of phases of osteogenesis. Therefore, it was possible to design temporal or “window” experiments in order to determine the phases of osteogenesis that were sensitive to TCDD and/or resveratrol. […] All cultures were maintained for the entire 6-day period. The compounds were administered over four different temporal phases, as outlined below in the time-line diagram: a) days 0-6; b) days 0-2; c) days 2-4 or d) days 4-6 (Note: all cultures were stopped at 6 days). Results were compared to e) vehicle alone over days 0-6. [drawing 1]
The isolation of total RNA from periosteal cultures to determine affect of TCDD on message levels of bone proteins was accomplished using the QIAGEN Rneasy® kit and QIAShredder® (Hilden, Germany) according to the manufacturer's instructions. Total RNA (2 μg) was reverse transcribed using SuperScript II™ RNase H^− Reverse Transcriptase (Gibco BRL, City Country). PCR reactions were performed in […] reactions at a cycle number ensuring a linear amplification profile (BSP, 5 min at 94° C., 30 cycles [of 20 sec at 94° C., 20 sec at 55° C., 20 sec at 72° C.]; Collagen 5 min at 94° C., 30 cycles [of 20 sec 94° C. 20 sec 58° C., 20 sec 72° C.]; AP 5 min at 94° C., 30 cycles [of 20 sec 94° C., 20 sec 59° C., 20 sec 72° C.]; OPN 5 min at 85° C., 5 min at 94° C., 25 cycles [20 sec at 94° C., 20 sec at 60° C., 20 sec at 72° C.] 7 min at 72° C.). The oligonucleotides for BSP (sense: 5′-[…]-3′; antisense: 5′-[…]-3′) AP (sense: 5′-[…]-3′; antisense: 5′-[…]-3′), Collagen (sense: 5′-[…]-3′; antisense: 5′-[…]-3′); OPN (sense 5′-[…]-3′; antisense 5′-[…]-3′) were synthesized by Life Technologies (Gibco BRL, Rockville, Md.). PCR products were electrophoresed on 1.5 (wt/vol) % agarose gels with 0.1 μg/ml ethidium bromide. The gels were visualized on an UV transilluminator and photographed using 667 Polaroid film. The inverse images of the photographs were analyzed by densitometry. All values were normalized for the internal control, β-actin.

[3] = test system: rat SBMC (stromal bone marrow cell) line; experiment: Mineralization (Alizarin Red staining) in rat SBMC line
Experimental: Cells for the rat SBMC model were obtained from Dr. Sandu Pitaru (Tel Aviv University, Israel) and maintained in T25 tissue culture flasks (Sarstedt, Newton, N.C., USA) in a medium composed of αMEM+RNA+DNA+antibiotic supplemented with 10% fetal calf serum, 10 mM β-glycerophosphate, 10^−8M dexamethasone, 50 μg/ml vitamin C and 3 ng/ml fibroblast growth factor. The media were changed every 48 hours and the cells subcultured when almost confluent (approximately every 72 hrs). Cells were grown for a period of 1-2 weeks to allow for formation of mineralized bone nodules.
SBMC cultures were assayed for AP activity using paranitrophenol-phosphate (pN-p) as the substrate as described above for CPO cultures. In some cases, AP activity was also measured using direct staining of SBMC cultures in 96 well plates as described previously (Tenenbaum et al., Anat Rec. 1995. 242(2):200-10). Mineralization in the SBMC cultures was determined using Alizarin Red staining in situ that was assessed with the Titertek spectrophotometer set at 525 nm.

With `Clc1cc2c(cc1Cl)Oc1cc(Cl)c(Cl)cc1O2` [TCDD, 2,3,7,8-tetrachlorodibenzo-p-dioxin] the “bone formation (histology)” value ([1]; TCDD-treated CPO cultures, FIG. 1B) was “obvious changes in bone formation”, the “reduction in mRNA for BSP” value ([2]; TCDD, p<0.05) was ~4 fold and the “reduction of mRNA levels for OPN” value ([2]; TCDD, p<0.05) was “about 40%”. For the same molecule, the “reduction of mRNA levels for type I collagen in comparison to control” value ([2]; TCDD, p<0.05) was 50%, the “reduction of message levels for AP in comparison to control” value ([2]; TCDD, p<0.05) was “about 50%” and the “reduction in mineralization (Alizarin Red Staining), dose dependence” value ([3]; TCDD 4.12×10^−11M to 1.52×10^−12M) was “dose dependant reduction in mineralization”. For the same molecule, the decrease in mineralization ([3]; in the presence of TCDD) was “approximately 75%”.
`Oc1ccc(C=Cc2cc(O)cc(O)c2)cc1` [resveratrol, 3,5,4′-trihydroxystilbene] was tested, and the “reversal of TCDD effect on bone formation (histology)” value ([1]; cultures treated with both TCDD and resveratrol, FIG. 1D) was “complete reversal of the TCDD effect”, the “bone formation (histology)” value ([1]; resveratrol alone, FIG. 1C) was “large deposits of bone similar to the control cultures” and the “reversal of TCDD inhibition of BSP mRNA” value ([2]; TCDD with resveratrol) was “reversed completely”. For the same molecule, the “mRNA levels for OPN” value ([2]; both TCDD and resveratrol) was “restored”, the “mRNA levels for Type I collagen” value ([2]; both TCDD and resveratrol, versus control) was “identical levels” and the “message for BSP” value ([2]; resveratrol alone) was “partially down-regulate”. The message for collagen ([2]; resveratrol alone) was “partially down-regulate” and the “effect on TCDD-induced decrease in mineralization” value ([3]; resveratrol with TCDD) was “attenuated”.
